According to patent US20250206789A1, “ZINC FINGER DEGRON SEQUENCES” (STICHTING HET NEDERLANDS KANKER INSTITUUT-ANTONI VAN …, priority 2022, published 2025):

Each substance was assayed on Jurkat cells (assay: SynFinger library screen: CD69 expression of CRASH-IT (Zap70-PD1-degron) transduced Jurkat cells with or without lenalidomide, enrichment index from NGS reads). Settings: Jurkat SynFinger screen.
Assay type: cell-based
Parameters: key to EI / EI index (enrichment index): enrichment index; low EI = SynFinger with desired properties
From the text: […] Jurkat cells were transduced with the SynFinger library (SynFinger containing CRASH-IT switches) at a 12.8% transduction efficiency and sorted for high EGFP expression to enrich transduced cells. For quality control of the SynFinger transduced Jurkat cells, SynFinger sequences were amplified and analyzed by NGS. 10 randomly selected SynFinger encoding DNA sequences or DNA sequences encoding the same SynFinger amino acid sequences but contain 2 nucleotide mismatches due to alternative codon usage were used to assess ability to distinguish true SynFinger sequences from noise in the NGS data. 10/10 SynFinger encoding full-nucleotide sequence match sequences were observed within NGS data whereas the 2 nucleotide mismatch containing sequences were not detected.
Jurkat cells expressing the SynFinger library were treated with 50 nM lenalidomide (a suboptimal dose that activates only ˜50% of cells expressing a CRASH-IT switch containing the parental double hybrid degron in Jurkat cells, as compared to a maximally effective 1000 nM lenalidomide dose) or were mock treated for 24 hours, and subsequently activated with anti-CD3/anti-CD28 antibodies in the presence or absence of 50 nM lenalidomide for 5 hours. Afterwards, cells were stained with IR dye (1:400) and anti-CD69-PE (1:200). Cells were sorted for live (IR dye negative), EGFP high end CD69 high (top 5%) or CD69 low (bottom 5%) expression using Aria Fusion cytometers.
Subsequently, cells were washed with PBS, and cell pellets were frozen at −20° C. until DNA extraction. Genomic DNA was isolated using the DNeasy Blood & Tissue Kit (Qiagen) according to the manufacturer's instructions, using 5×10^6 cells per column. DNA was eluted in 22 μl RNAse free water. Deep sequencing adapters and indexes were added to SynFinger encoding DNA sequences using PCR amplification. Briefly, 3 μg genomic DNA (20 μl), indexed forward and reverse primers (10 μM, 2.5 μl each) and 25 μl NEBNext® High-Fidelity 2×PCR Master Mix were added to the PCR reaction. An optimized PCR reaction (98° C. for 30 s, (98° C. for 10 s, 56° C. for 10 s, 72° C. for 5 s)×25 cycles, 72° C. for 3 min was performed using Eppendorf PCR cyclers.
Indexed PCR products were run on agarose gel, relative DNA concentrations were estimated by measuring band intensity, and 12 indexed PCR reaction products were mixed per MiSeq chip. To increase sequence diversity, samples were mixed with 25% PhiX DNA. In total, 2 MiSeq chips were used (100 bp, single read). To distinguish genuine SynFinger sequences from sequencing errors, results were filtered using a reference list of actual sequences used in SynFinger library design (100% codon match). Sequences with a very low number of reads (sum of all samples below 500 reads) were excluded from analysis.
To identify SynFingers that improve sensitivity of CRASH-IT switches towards lenalidomide while preserving or improving stringency of switch mediated control of T cell activation in the absence of lenalidomide, an enrichment index (EI) value was calculated for each sequence as described below, and SynFingers were ranked according to their EI, with a low EI indicating a SynFinger with desired properties.
CD69-HI and […] read counts from top 100 SynFingers were compared with read counts from the parental double hybrid degron using a two-sided Fisher's exact test to determine enrichment of CD69-HI cells in the presence of lenalidomide and enrichment of CD69-LO cells in the absence of lenalidomide.
To further improve the sensitivity of double hybrid degron towards IMiDs, we performed a high throughput screen using a library of ˜50,200 CRASH-IT variants that encode either single or double amino acid substitutions at the indicated positions of the first hybrid zinc finger sequence, thereby changing 18 amino acids of this zinc finger into any amino acid except cysteine (FIG. 3). […]
Substance LQCEICGFTCRRVGNLLRHIKLH [SEQ ID NO: 9] has an EI of 0.006877.

Same assay, conditions: Table 6; dual substitutions in first hybrid zinc finger domain; Jurkat, 50 nM lenalidomide vs mock, CD69-HI/CD69-LO; low EI = desired
In the case of “73 (LQCHICGFTSRQKGNLLRHIKLH) [compound 73]”, the “EI index (enrichment index)” value is reported as 0.03303. For “74 (WQCEICGFTCRQKGNLLRHIALH) [compound 74]”, the “EI index (enrichment index)” value was 0.03362. For “75 (LQCHICGFTCRQHGNLLRHIKLH) [compound 75]”, the “EI index (enrichment index)” value was 0.03442. “76 (LQCQICGFTCRRKGNLLRHIKLH) [compound 76]” was tested, and the “EI index (enrichment index)” value was 0.03445. With “77 (LQCEICGFTCRKRGNLLRHIKLH) [compound 77]” the “EI index (enrichment index)” value was 0.03531. For “78 (LQCNICGFTCRQLGNLLRHIKLH) [compound 78]”, the “EI index (enrichment index)” value was 0.03544. “79 (LQCEICGFTCRKKGNLLRHIILH) [compound 79]” was tested, and the “EI index (enrichment index)” value was 0.03569. With “80 (LQCEICGFTCRQPGNLLRHYKLH) [compound 80]” the “EI index (enrichment index)” value was 0.03685. For “81 (LQCEICGFTCRQDGRLLRHIKLH) [compound 81]”, the “EI index (enrichment index)” value was 0.03726. In the case of “82 (LQCMICGFTCRQKGNLMRHIKLH) [compound 82]”, the “EI index (enrichment index)” value is reported as 0.03754. For “83 (LQCWICGFTCRQKGNMLRHIKLH) [compound 83]”, the “EI index (enrichment index)” value was 0.03839. “84 (LQCEICGFTCRQKGKYLRHIKLH) [compound 84]” was tested, and the “EI index (enrichment index)” value was 0.03903. With “85 (WQCMICGFTCRQKGNLLRHIKLH) [compound 85]” the “EI index (enrichment index)” value was 0.03924. With “86 (LQCVICGFQCRQKGNLLRHIKLH) [compound 86]” the “EI index (enrichment index)” value was 0.0393. “87 (LQCEICGFTCRQKQRLLRHIKLH) [compound 87]” was tested, and the “EI index (enrichment index)” value was 0.0394. For “88 (LQCEICGFRCRQKGNLLRHIKKH) [compound 88]”, the “EI index (enrichment index)” value was 0.03947. “89 (MQCEICGFTCRQKSNLLRHIKLH) [compound 89]” was tested, and the “EI index (enrichment index)” value was 0.04065. “90 (LQCEICGFTCRQHGVLLRHIKLH) [compound 90]” was tested, and the “EI index (enrichment index)” value was 0.04107. For “91 (LQCWICGFTCRQKGNLWRHIKLH) [compound 91]”, the “EI index (enrichment index)” value was 0.04125. With “92 (LQCEICGFTCRQLRNLLRHIKLH) [compound 92]” the “EI index (enrichment index)” value was 0.04129. For “93 (LQCEICGFTSRQKGRLLRHIKLH) [compound 93]”, the “EI index (enrichment index)” value was 0.04175. “94 (MQCVICGFTCRQKGNLLRHIKLH) [compound 94]” was tested, and the “EI index (enrichment index)” value was 0.04229. With “95 (LQCLICGFTCRQKGNLLRHIRLH) [compound 95]” the “EI index (enrichment index)” value was 0.04285. For “96 (LQCEICGFTCRQKLNLLRHIKRH) [compound 96]”, the “EI index (enrichment index)” value was 0.04285. With “97 (LQCEICGFTCRKKVNLLRHIKLH) [compound 97]” the “EI index (enrichment index)” value was 0.04294. For “98 (LQCEICGFKCRQKGNLLRHIKRH) [compound 98]”, the “EI index (enrichment index)” value was 0.04302. With “99 (LQCEICGFTCRQKGNLLRHINNH) [compound 99]” the “EI index (enrichment index)” value was 0.04339. For “100 (LQCEICGFTCRQKGRLLRHIHLH) [compound 100]”, the “EI index (enrichment index)” value was 0.04461.

Same assay, conditions: single mutation vs dual substitution L1Y/E4V; higher EI = less sensitive to IMiD
“YQCEICGFTCRQKGNLLRHIKLH [SEQ ID NO: 108, first hybrid zinc finger domain with only one mutation, substitution L1Y]” was tested, and the “EI value, times higher as compared to SEQ ID. NO 36” value was 10-15 times.

Same assay, conditions: single mutation vs dual substitution; higher EI = less sensitive to IMiD
With “YQCEICGFTCRQKGNLLRHIKLH [SEQ ID NO: 108, first hybrid zinc finger domain with only one mutation, substitution L1Y]” the “EI value, times higher as compared to SEQ ID. NO 100” value was “at least 5 times”.

The substances below were run on Primary human T cells (assay: Cytokine production and degranulation of CDK4 TCR T cells with Zap70-Siglec11-degron CRASH-IT switch co-cultured with NKIRTIL006 melanoma cells, lenalidomide). Settings: 5 nM lenalidomide; as compared to double hybrid degron containing CRASH-IT switch.
Assay type: cell-based
From the text: FIG. 5: SynFingers fusion proteins enable sensitive control of immune cell functions. A subset of SynFingers identified in the SynFinger library screen were individually validated. (A-H) Primary human T cells were modified with the HLA class I restricted CDK4 TCR plus a Zap70-Siglec11-degron CRASH-IT switch, in which the degron sequence contains the parental zinc finger degron (double hybrid degron depicted in FIGS. 1 and 3), or the parental zinc finger degron with the following mutations: G14N/K21A, G14M/N15R, L17I/K21L, E4R/Q12L, Q12R/K13T, or Q12R/K13V. As a control, primary human T cells modified with the HLA class I restricted CDK4 TCR plus vector control were used. Cells were pretreated with 5 nM lenalidomide or left untreated. Data depict intracellular IFNγ, IL2, TNFα, and cell surface LAMP1 expression of CDK4 TCR+, EGFP intermediate, CD8+ T cells upon co-culture with NKIRTIL006 melanoma cells in the continued absence (E-H) or continued presence of 5 nM lenalidomide (A-D). Dashed horizontal lines indicate cytokine production and degranulation levels of cells modified with a CRASH-IT switch containing the parental zinc finger degron. Error bars represent standard deviation (n=2). SynFinger and vector control groups were compared to the parental zinc finger group using a one-sided t test: *=p<0.05, **=p<0.01, ***=p<0.001, ****=p<0.0001, n.s.=not significant. Data are representative of two independent experiments.
FIG. 6: SynFinger containing CRASH-IT switches enable restoration of cytokine production and degranulation at lower IMID concentrations as compared to zinc finger degrons not according to the invention. (A-D) Primary human T cells modified with the HLA class I restricted CDK4 TCR plus a Zap70-Siglec11-degron CRASH-IT switch, in which the degron sequence contains prior art zinc finger degrons (single hybrid, dual zinc finger degron depicted in FIG. 1), the parental zinc finger degron (double hybrid degron depicted in FIGS. 1 and 3), or the parental zinc finger degron with the following mutations: G14N/K21A, L17I/K21L, or Q12R/K13V, were pretreated with the indicated concentrations of lenalidomide or left untreated. Data depict intracellular IFNγ, IL2, TNFα, and cell surface LAMP1 expression of CDK4 TCR+, EGFP intermediate, CD8+ T cells upon co-culture with NKIRTIL006 melanoma cells in the continued presence or absence of the indicated concentration of lenalidomide (A-D). Error bars represent standard deviation (n=3). Data are representative of two independent experiments. (E) Table depicts EC50Lenalidomide (nM) values of cells in (A-D), and EC50 fold change between the prior art zinc finger degron and a SynFinger containing the Q12R/K13V substitutions.
FIG. 7: Combination of dual substitution sets can further increase lenalidomide sensitivity of SynFinger degron. (A-D) Primary human T cells modified with the HLA class I restricted CDK4 TCR plus a Zap70-Siglec11-degron CRASH-IT switch, in which the degron sequence contains the parental zinc finger degron (double hybrid degron depicted in FIGS. 1 and 3), or the parental zinc finger degron with the following mutations: G14N/K21A, Q12R/K13V, or Q12R/K13V/G14N/K21A, were pretreated with the indicated concentrations of lenalidomide or left untreated. Data depict intracellular IFNγ, IL2, TNFα, and cell surface LAMP1 expression of CDK4 TCR+, EGFP intermediate, CD8+ T cells upon co-culture with NKIRTIL006 melanoma cells in the continued presence or absence of the indicated concentration of lenalidomide (A-D). Error bars represent standard deviation (n=3). Data are representative of two independent experiments.
To test whether the SynFingers that show an improved drug sensitivity in this Jurkat SynFinger library screen also led to an improved sensitivity to low IMID concentrations when expressed in primary human T cells, human peripheral blood T cells were modified to express the CDK4 TCR and indicated SynFinger containing CRASH-IT switch variants (FIG. 5). […]
For LQCEICGFTCRQKGNLIRHILLH [SEQ ID NO: 14], the “cytokine production at very low lenalidomide concentration” value (“cytokine production” below) was “improved cytokine production”. In the case of LQCEICGFTCRQKMRLLRHIKLH [SEQ ID NO: 4], the “cytokine production” value is reported as “improved cytokine production”. In the case of LQCEICGFTCRQKNNLLRHIALH [SEQ ID NO: 6], the “cytokine production” value is reported as “improved cytokine production”. In the case of LQCEICGFTCRRTGNLLRHIKLH [SEQ ID NO: 2], the “cytokine production” value is reported as “improved cytokine production”. LQCEICGFTCRRVGNLLRHIKLH [SEQ ID NO: 9] was tested, and the “cytokine production” value was “improved cytokine production”. LQCRICGFTCRLKGNLLRHIKLH [SEQ ID NO: 1] was tested, and the “cytokine production” value was “improved cytokine production”.

Same assay, conditions: as compared to SynFinger degrons with Q12R/K13V or G14N/K21A
For “LQCEICGFTCRRVNNLLRHIALH [Q12R/K13V/G14N/K21A, SynFinger degron with quadruple substitutions]”, the “sensitivity of the SynFinger towards lenalidomide” value was “improved the sensitivity”.
